Data from US8247211B2, “Glycopeptide antibiotics” (American Cyanamid Company, priority 2001, dated 2012).
Converted amounts (≈) assume the structure as drawn.

How the values were obtained:
Escherichia coli = assay: In vitro antibacterial evaluation: minimum inhibitory concentration (MIC), broth dilution method; format: cell-based; conditions: 5×10^5 CFU/mL, 18 hours at 35° C.
Outline: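 Test strains, among them recent clinical isolates carrying methicillin, penicillin and/or vancomycin resistance, were inoculated at 5×10^5 CFU/mL. A broth dilution series spanning 64-0.06 μg/mL in Muller-Hinton II […] (NCCLS M7-A2) defined the MIC as the lowest growth-inhibiting concentration.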

Enterococcus sp. = assay: as above; format: cell-based; conditions: broth dilution, 5×10^5 CFU/mL, 18 hours at 35° C.
Outline: (§1)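 First, organisms are seeded at 5×10^5 CFU/mL into Muller-Hinton II […]. Next, antibiotic is applied across 64-0.06 μg/mL by broth dilution (NCCLS M7-A2). Finally, the lowest inhibitory concentration is recorded as MIC.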

Streptococcus sp. = assay: as above; format: cell-based; conditions: broth dilution, 5×10^5 CFU/mL, 18 hours at 35° C.
Outline: as §1

Staphylococcus sp. = assay: as above; format: cell-based; conditions: for MIC Staphylococcus aureus (ATCC 29213): strain ATCC 29213; for MIC Staphylococcus aureus (GC 1131): strain GC 1131; for MIC Staphylococcus aureus (GC 4541): strain GC 4541; for MIC Staphylococcus aureus (GC 4542): strain GC 4542; for MIC Staphylococcus aureus-SMITH (GC 4543): strain GC 4543; for MIC Staphylococcus aureus (GC 4544): strain GC 4544; for MIC Staphylococcus aureus (GC 4545): strain GC 4545; for MIC Staphylococcus haemolyticus (GC 4546): strain GC 4546; for MIC Coagulase Negative Staphylococcus (GC 4547): strain GC 4547; for MIC Coagulase Negative Staphylococcus (GC 4548): strain GC 4548; for MIC Coagulase Negative Staphylococcus (GC 4549): strain GC 4549; for MIC Coagulase Negative Staphylococcus (GC 4551): strain GC 4551; for MIC Coagulase Negative Staphylococcus (ID-3941): strain ID-3941
Outline: as §1

[1] = test system: Streptococcus pneumoniae (GC 1894), penicillin resistant strain; assay: Acute lethal infection in mice (ED50); format: in vivo; conditions: female CD-1 mice, intraperitoneal challenge, intravenous dose 30 min. after infection, 7 day survival ratios
Outline: (§2)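 Bacteria suspended in Trypticase Soy Broth or hog gastric mucin are injected intraperitoneally into female CD-1 mice at a dose killing untreated animals within 24-48 hr. Thirty minutes later, test agent is administered intravenously. Survival at day 7 is scored.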

[2] = test system: Enterococcus faecalis (GC 6189), vancomycin resistant strain; assay: Acute lethal infection in mice (ED50); format: in vivo; conditions: female CD-1 mice, intraperitoneal challenge, intravenous dose 30 min. after infection, 7 day survival ratios
Outline: as §2

[3] = test system: Staphylococcus aureus-SMITH (GC 4543); assay: Acute lethal infection in mice (ED50); format: in vivo; conditions: female CD-1 mice, intraperitoneal challenge, intravenous dose 30 min. after infection, 7 day survival ratios
Outline: as §2

[4] = broth dilution, 18 hours at 35° C.

Structure (SMILES): CCCC(C)C1OCC2OC(OC3C(CO)OC(Oc4ccc(CC5NC(=O)C(C(C)c6ccccc6)NC(=O)CNC(=O)C(CO)NC(=O)C(C(O)C6CNC(=N)N6C6OC(CO)C(O)C(O)C6O)NC(=O)C(C(O)C6CNC(=N)N6)NC5=O)cc4)C(O)C3O)C(O)C(O)C2O1 (stereo not drawn) [Example 111]
- MIC Escherichia coli (ATCC 25922) (Escherichia coli): 32 µg/mL (≈ 23.2 µM)
- MIC Enterococccus avium (GC 4558) (Enterococcus sp.): 2 µg/mL (≈ 1.45 µM)
- MIC Enterococccus faecalis (ATCC 29212) (Enterococcus sp.): 2 µg/mL (≈ 1.45 µM)
- MIC Enterococccus faecalis (GC 4552) (Enterococcus sp.): 2 µg/mL (≈ 1.45 µM)
- MIC Enterococccus faecalis (GC 4553) (Enterococcus sp.): 2 µg/mL (≈ 1.45 µM)
- MIC Enterococccus faecalis (GC 4554) (Enterococcus sp.): 2 µg/mL (≈ 1.45 µM)
- MIC Enterococccus faecium (GC 2243) (Enterococcus sp.): 1 µg/mL (≈ 0.726 µM)
- MIC Enterococccus faecium (GC 4556) (Enterococcus sp.): 2 µg/mL (≈ 1.45 µM)
- MIC Enterococccus faecium (GC 4557) (Enterococcus sp.): 0.5 µg/mL (≈ 0.363 µM)
- MIC Enterococcus faecalis (GC 2242) (Enterococcus sp.): 1 µg/mL (≈ 0.726 µM)
- MIC Streptococcus agalactiae (GC 4564) (Streptococcus sp.): 1 µg/mL (≈ 0.726 µM)
- MIC Streptococcus pneumoniae (GC 4565) (Streptococcus sp.): 0.5 µg/mL (≈ 0.363 µM)
- MIC Streptococcus pyogenes (ID-3187) (Streptococcus sp.): 0.5 µg/mL (≈ 0.363 µM)
- MIC Staphylococcus aureus (ATCC 29213) (Staphylococcus sp.): 1 µg/mL (≈ 0.726 µM)
- MIC Staphylococcus aureus (ATCC 29213) (Staphylococcus sp.; [4]): 1 µg/mL (≈ 0.726 µM)
- MIC Staphylococcus aureus (GC 1131) (Staphylococcus sp.): 1 µg/mL (≈ 0.726 µM)
- MIC Staphylococcus aureus (GC 1131) (Staphylococcus sp.; [4]): 1 µg/mL (≈ 0.726 µM)
- MIC Staphylococcus aureus (GC 4541) (Staphylococcus sp.): 1 µg/mL (≈ 0.726 µM)
- MIC Staphylococcus aureus (GC 4541) (Staphylococcus sp.; [4]): 1 µg/mL (≈ 0.726 µM)
- MIC Staphylococcus aureus (GC 4542) (Staphylococcus sp.): 1 µg/mL (≈ 0.726 µM)
- MIC Staphylococcus aureus (GC 4542) (Staphylococcus sp.; [4]): 1 µg/mL (≈ 0.726 µM)
- MIC Staphylococcus aureus-SMITH (GC 4543) (Staphylococcus sp.; 18 hours at 35° C.): 1 µg/mL (≈ 0.726 µM)
- MIC Staphylococcus aureus-SMITH (GC 4543) (Staphylococcus sp.; [4]): 1 µg/mL (≈ 0.726 µM)
- MIC Staphylococcus aureus (GC 4544) (Staphylococcus sp.): 1 µg/mL (≈ 0.726 µM)
- MIC Staphylococcus aureus (GC 4544) (Staphylococcus sp.; [4]): 1 µg/mL (≈ 0.726 µM)
- MIC Staphylococcus aureus (GC 4545) (Staphylococcus sp.): 1 µg/mL (≈ 0.726 µM)
- MIC Staphylococcus aureus (GC 4545) (Staphylococcus sp.; [4]): 1 µg/mL (≈ 0.726 µM)
- MIC Staphylococcus haemolyticus (GC 4546) (Staphylococcus sp.): 1 µg/mL (≈ 0.726 µM)
- MIC Staphylococcus haemolyticus (GC 4546) (Staphylococcus sp.; [4]): 1 µg/mL (≈ 0.726 µM)
- MIC Coagulase Negative Staphylococcus (GC 4547) (Staphylococcus sp.): 0.5 µg/mL (≈ 0.363 µM)
- MIC Coagulase Negative Staphylococcus (GC 4547) (Staphylococcus sp.; [4]): 0.5 µg/mL (≈ 0.363 µM)
- MIC Coagulase Negative Staphylococcus (GC 4548) (Staphylococcus sp.): 1 µg/mL (≈ 0.726 µM)
- MIC Coagulase Negative Staphylococcus (GC 4548) (Staphylococcus sp.; [4]): 1 µg/mL (≈ 0.726 µM)
- MIC Coagulase Negative Staphylococcus (GC 4549) (Staphylococcus sp.): 0.5 µg/mL (≈ 0.363 µM)
- MIC Coagulase Negative Staphylococcus (GC 4549) (Staphylococcus sp.; [4]): 0.5 µg/mL (≈ 0.363 µM)
- MIC Coagulase Negative Staphylococcus (GC 4551) (Staphylococcus sp.): 1 µg/mL (≈ 0.726 µM)
- MIC Coagulase Negative Staphylococcus (GC 4551) (Staphylococcus sp.; [4]): 1 µg/mL (≈ 0.726 µM)
- MIC Coagulase Negative Staphylococcus (ID-3941) (Staphylococcus sp.): 1 µg/mL (≈ 0.726 µM)
- MIC Coagulase Negative Staphylococcus (ID-3941) (Staphylococcus sp.; [4]): 1 µg/mL (≈ 0.726 µM)
- median effective dose (ED50), Streptococcus pneumoniae (GC 1894) [1]: 0.03 mg/kg
- median effective dose (ED50), Enterococcus faecalis (GC 6189) [2]: 0.28 mg/kg
- median effective dose (ED50), Staphylococcus aureus-SMITH (GC 4543) [3]: 0.14 mg/kg
